Results on three compounds are retold here after patent US20070231838A1, “Method for the assay of rock kinase activity in cells” (priority 2006, published 2007).

This assay relates to ROCK kinase. In words: Immunoblotting of MYPT1 phosphorylation in Panc-1 cells treated with ROCK inhibitors. It is filed as cell-based, human. To be noted: for rank order of potency for reduction of MYPT1 phosphorylation: 1 h incubation, immunoblotting (FIG. 5A). The method, then: FIG. 3: Extraction of cytoskeletal substrates of ROCK1/ROCK2 from Pancd cell extracts: (A) Panc-1 cells were incubated in the presence and absence of 10 μM ROCK inhibitor Y27632 for 1 h followed by lysis in the indicated buffers. Equal fractions of cell lysate were analyzed by immunoblotting for pMYPT1 (T696 or T853), total MYPT1, pMLC (S19) and total MLC. (B) 10 μL aliquots of Panc-1 cell lysate prepared in PROTEOEXTRACT® buffer (or buffer alone for control wells) were diluted in buffer A as indicated prior to addition to MYPT1 antibody-coated ELISA assay plate wells. Quantitation of the extent of MYPT1 (T853) phosphorylation was performed in triplicate assay wells as described in the methods section. Results plotted are mean signal intensities, error bars represent Standard Deviations.
FIG. 4: Time course of reduction of MYPT1 phosphorylation bv ROCK inhibitors in Pancl cells: Panc-1 cells were incubated in the presence and absence of 10 μM ROCK inhibitor Y27632 for the indicated time points followed by lysis in SDS-PAGE sample buffer. Equal fractions of cell lysate were then analyzed by immunoblotting for pMYPT1 (T696 or T853) and total MYPT1 protein.
FIG. 5: Effect of ROCK inhibitors on MYPT1 (T853) phosphorylation in Panc-1 cells: (A) Panc-1 cells were incubated in the presence and absence of the indicated concentrations of ROCK inhibitors H1152, Y27632 or HA1077 for 1 h, followed by lysis in SDS-PAGE sample buffer. Equal fractions of cell lysate were then analyzed by immunoblotting for pMYPT1 (T696 or T853) and total MYPT1 protein. (B) Panc1 cells were grown in 96-well culture plates, and incubated for 1 h with the indicated concentrations of compound ROCK inhibitors H1152, Y27632 or HA1077. Lysates were then prepared in PROTEOEXTRACT® buffer, and analyzed in the pMYPT1 (T853) ELISA assay as described in the Methods section.
Human cancer cell lines were purchased from the American Type Culture Collection (ATCC). Panc-1 cells were grown in Dulbecco's modified Eagle's medium with 2 mM L-glutamine adjusted to contain 3.7 g/L sodium bicarbonate and 4.5 g/L glucose, 10% fetal bovine serum. All other cell lines were grown in media as prescribed by the ATCC, containing 10% FCS.
Lysates were prepared from cultured cells, following a brief rinse in PBS, using several different buffers. Buffer A (50 mM Tris-HCl, pH 7.4, 150 mM NaCl, 10% glycerol, 1% Triton X-100, 0.5 mM EDTA, 1 mM […], […], lmg/ml aprotinin) and buffer B (RIPA buffer: Sigma catalog #R0278, containing protease and phosphatase inhibitor cocktails Sigma catalog #P2850, P5726 P8340) were added to the cells in culture dishes, the cells were scraped from the dish and the lysates transferred to eppendorf tubes and incubated at 4° C. for 20 min. Lysates were then clarified by centrifugation at 10,000 g, and the resulting supernatants were stored at −80° C. prior to the addition of SDS-PAGE sample buffer and analysis by immunoblotting. Alternatively, lysates were prepared by the direct addition of SDS-PAGE sample buffer to the cultures, and samples were prepared for analysis by sonication for 5 min followed by heating to 100° C. for 5 min. Alternatively, lysates were prepared by the addition of PROTEOEXTRACT® solution (complete mammalian proteome extraction kit, Calbiochem, #539779) including 16.5 IU of BENZONASE® (Novagen, Inc., Madison, Wis.) followed by shaking for 30 minutes at room temperature. Samples prepared by this method were either diluted directly into SDS-PAGE sample buffer for analysis by immunoblotting, or were diluted 10-fold in buffer A for analysis in antibody capture ELISA assays. Tumor lysates were prepared using the PROTEOEXTRACT® complete mammalian proteome extraction kit (Calbiochem, #539779). Approximately 300 mg samples of tumor sample were homogenized and dispersed in […] resuspension buffer, then 2.4 mL extraction reagent and 150 μl reducing agent were added and the samples were mixed thoroughly. […]
In general terms: A western blot detects proteins with antibodies after separation by electrophoresis.

Setting [1] is: 10 μM for 1 h prior to lysis, immunoblotting (FIG. 3).
The mark [2] stands for this setting: 10 μM, time course up to 24 h (FIG. 4).

`Cc1cncc2cccc(S(=O)(=O)N3CCCNC[C@@H]3C)c12` [H1152]: the “rank order of potency for reduction of MYPT1 phosphorylation” value was “H1152>Y27632>HA1077”.
Take `O=S(=O)(c1cccc2cnccc12)N1CCCNCC1` [HA1077]: the “rank order of potency for reduction of MYPT1 phosphorylation” value was “H1152>Y27632>HA1077”.
Consider `C[C@@H](N)[C@H]1CC[C@H](C(=O)Nc2ccncc2)CC1` [Y27632], for which the “rank order of potency for reduction of MYPT1 phosphorylation” value was “H1152>Y27632>HA1077”. Further, under setting [1], the “level of MYPT1 phosphorylation” value was “significantly reduced” and the “total MYPT1 protein content of the extracts” value is “without affecting significantly”. Under setting [2], the “incubation time necessary to maximally reduce steady-state phosphorylation of MYPT1 T696” value is “at least 8 hours” and the “time to maximal reduction of steady-state phosphorylation of MYPT1 (T853)” value lay within 30 to 60 min.
